Columns and labels:
[1] = biological target: Sodium-dependent dopamine transporter (Rattus norvegicus, UniProt P23977); assay: Inhibition of […] binding to the dopamine transporter in rat striatal membranes.; format: cell membranes, Membrane
[2] = biological target: Sodium-dependent dopamine transporter (Rattus norvegicus) (UniProt P23977); assay: In vitro ability to inhibit the [3H]WIN-35428 binding to cocaine binding site on dopamine transporter in rat striatal membranes irreversibly after two washes.; format: cell membranes; set-up: concentration or dose not given beside the values; conditions: Striatum; Membrane
[3] = biological target: Sodium-dependent dopamine transporter (Rattus norvegicus) (UniProt P23977); assay: In vitro ability to inhibit the [3H]WIN-35428 binding to cocaine binding site on dopamine transporter in rat striatal membranes irreversibly after one wash.; format: cell membranes; set-up: concentration or dose not given beside the values; conditions: Striatum; Membrane
[4] = biological target: Sodium-dependent dopamine transporter (Rattus norvegicus) (UniProt P23977); assay: In vitro ability to inhibit the [3H]WIN-35428 binding to cocaine binding site on dopamine transporter in rat striatal membranes irreversibly after no wash.; format: cell membranes; set-up: concentration or dose not given beside the values; conditions: Striatum; Membrane
[5] = biological target: Sodium-dependent dopamine transporter (Rattus norvegicus) (UniProt P23977); assay: In vitro ability to inhibit the [3H]WIN-35428 binding to cocaine binding site on dopamine transporter in rat striatal membranes irreversibly after three washes.; format: cell membranes; set-up: concentration or dose not given beside the values; conditions: Striatum; Membrane

Sodium-dependent dopamine transporter, sequence (P23977 whole entry): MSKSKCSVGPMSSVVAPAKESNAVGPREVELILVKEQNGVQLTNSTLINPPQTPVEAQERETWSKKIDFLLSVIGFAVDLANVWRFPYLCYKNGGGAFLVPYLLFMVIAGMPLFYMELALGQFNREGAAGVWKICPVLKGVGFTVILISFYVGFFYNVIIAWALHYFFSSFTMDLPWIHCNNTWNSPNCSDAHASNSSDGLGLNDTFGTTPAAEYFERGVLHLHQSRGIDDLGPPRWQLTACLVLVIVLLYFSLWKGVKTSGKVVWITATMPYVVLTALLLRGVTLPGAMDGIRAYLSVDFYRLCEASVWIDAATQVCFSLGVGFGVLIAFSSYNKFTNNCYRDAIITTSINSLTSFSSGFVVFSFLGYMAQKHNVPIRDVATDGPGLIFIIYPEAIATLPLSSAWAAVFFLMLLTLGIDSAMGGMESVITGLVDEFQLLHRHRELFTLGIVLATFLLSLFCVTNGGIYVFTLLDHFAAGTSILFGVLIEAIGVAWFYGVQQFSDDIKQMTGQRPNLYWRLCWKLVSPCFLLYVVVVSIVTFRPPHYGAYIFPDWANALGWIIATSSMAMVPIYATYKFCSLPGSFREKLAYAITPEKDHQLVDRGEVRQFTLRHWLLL
Sodium-dependent dopamine transporter (Rattus norvegicus), sequence (P23977 whole entry): as above

Row | Structure (SMILES) | IC50 [1] [nM] | Control [2] [%] | Control [3] [%] | Control [4] [%] | Control [5] [%]
1 | CN1C2CC[C@@H]1C[C@H](OC(=O)c1ccccc1)[C@@H]2C(=O)OCCc1ccc([N+](=O)[O-])cc1 | 601 |  |  |  | 
2 | CN1C2CC[C@@H]1C[C@H](c1ccc(Cl)cc1)[C@@H]2C(=O)OCCc1ccc(N)c(I)c1 | 2.51 |  |  |  | 
3 | COC(=O)[C@H]1[C@@H](OC(=O)c2ccccc2)C[C@@H]2CC[C@H]1N2C |  | 79 | 85 | 43 | 
4 | CN1C2CC[C@@H]1C[C@H](OC(=O)c1ccccc1)[C@@H]2C(=O)OCCc1ccc(N=C=S)cc1 | 196 |  |  |  | 
5 | CN1C2CC[C@@H]1C[C@H](OC(=O)c1ccccc1)[C@@H]2C(=O)OCCc1ccccc1 | 248 |  |  |  | 
6 | CN1C2CC[C@@H]1C[C@H](c1ccc(Cl)cc1)[C@@H]2C(=O)OCCc1ccc(N=[N+]=[N-])c(I)c1 | 14.5 | 22 | 14 | 14 | 16
7 | CN1C2CC[C@@H]1C[C@H](OC(=O)c1ccccc1)[C@@H]2C(=O)OCCc1ccc(NC(=O)CBr)cc1 | 61 | 33 | 34 | 22 | 38
8 | COC(=O)[C@@H]1C2CC[C@H](C[C@@H]1c1ccc(N)c(I)c1)N2C | 1.35 |  |  |  | 
9 | CN1C2CC[C@@H]1C[C@H](c1ccc(Cl)cc1)[C@@H]2C(=O)OCCc1ccc(N=C=S)cc1 | 5.3 | 26 | 29 | 24 | 30
10 | CN1C2CC[C@@H]1C[C@H](OC(=O)c1ccccc1)[C@@H]2C(=O)OCCc1ccc(N=[N+]=[N-])cc1 | 227 | 45 | 30 | 23 | 49
11 | CN1C2CC[C@@H]1C[C@H](OC(=O)c1ccccc1)[C@@H]2C(=O)OCCCc1ccccc1 | 139 |  |  |  | 
12 | CN1C2CC[C@@H]1C[C@H](OC(=O)c1ccccc1)[C@@H]2C(=O)OCCc1ccc(N)cc1 | 72 |  |  |  | 
13 | CN1C2CC[C@@H]1C[C@H](c1ccc(Cl)cc1)[C@@H]2C(=O)OCCc1ccc(NC(=O)CBr)cc1 | 1.73 | 26 | 23 | 14 | 34
14 | CN1C2CC[C@@H]1C[C@H](c1ccc(Cl)cc1)[C@@H]2C(=O)OCCc1ccc([N+](=O)[O-])cc1 | 2.71 |  |  |  | 
15 | CN1C2CC[C@@H]1C[C@H](c1ccc(Cl)cc1)[C@@H]2C(=O)OCCc1ccc(N)cc1 | 2.16 |  |  |  | 
16 | COC(=O)[C@@H]1C2CC[C@H](C[C@@H]1c1ccc(N=[N+]=[N-])c(I)c1)N2C | 4.93 | 5 | 2 | 0 | 5
17 | CN1C2CC[C@@H]1C[C@H](c1ccc(Cl)cc1)[C@@H]2C(=O)OCCc1ccc(N=[N+]=[N-])cc1 | 6.17 | 24 | 19 | 21 | 26
